The values below come from patent publication US9796711B2, “Substituted pyrazolo[3,4-b]pyridin-6-carboxylic acids and method of use” (AbbVie S.àr.l., priority 2015, dated 2017).

The EC50 is the concentration giving half of the maximal effect.

Structures are written as SMILES.

Experiment [1] concerns the target T1, ΔF508-CFTR (Homo sapiens, UniProt P13569, DEL508-508).
T1 construct: host or cells: CFBE41o-, doxycycline-inducible
Description: CFTR cell surface levels using HRP-tagged ΔF508-CFTR expressing CFBE cells, in the presence of a co-corrector. As to conditions: HRP-tagged ΔF508-CFTR expressing CFBE cells, in the presence of 3 μM co-corrector; for EC50: read-out: EC50. The format is cell-based. The method, boiled down:
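Cells were seeded with 0.5 μg/mL doxycycline and held 68 h at 37 °C. Test compounds plus 3 μM co-corrector (final 0.1% DMSO) were then added for 20 h at 33 °C. Washed cells received HRP substrate, and luminescence was normalized between DMSO and 3 μM co-corrector controls.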

For experiment [2], the target named is T1, ΔF508-CFTR. Description: CFTR cell surface levels using HRP-tagged ΔF508-CFTR expressing CFBE cells, intrinsic corrector capacity. In kind it is cell-based. As to conditions: for EC50: read-out: EC50. An outline of the steps:
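Here the cells express ΔF508-CFTR with horseradish peroxidase inserted in extracellular loop 4, so only rescued channel at the surface gives luminescent signal. Compounds act on their own, 20 h at the reduced temperature of 33 °C; values are percent activity relative to DMSO and a 3 μM corrector.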

The mark [3] stands for this setting: HRP-tagged ΔF508-CFTR expressing CFBE cells, intrinsic corrector capacity (no co-corrector), 33° C., 20 hours.
Setting [4] is: HRP-tagged ΔF508-CFTR CFBE41o- cells, compounds alone (intrinsic corrector capacity), 20 hours at 33° C., positive control 3 μM corrector.
Where [5] appears, read: HRP-tagged ΔF508-CFTR CFBE41o- cells, compounds alone (intrinsic corrector capacity), 20 hours at 33° C.
The mark [6] stands for this setting: HRP-tagged ΔF508-CFTR CFBE cells, compound alone (intrinsic corrector capacity), 20 hours at 33° C.

T1 sequence (P13569 with tags, fused parts or gaps DEL508-508): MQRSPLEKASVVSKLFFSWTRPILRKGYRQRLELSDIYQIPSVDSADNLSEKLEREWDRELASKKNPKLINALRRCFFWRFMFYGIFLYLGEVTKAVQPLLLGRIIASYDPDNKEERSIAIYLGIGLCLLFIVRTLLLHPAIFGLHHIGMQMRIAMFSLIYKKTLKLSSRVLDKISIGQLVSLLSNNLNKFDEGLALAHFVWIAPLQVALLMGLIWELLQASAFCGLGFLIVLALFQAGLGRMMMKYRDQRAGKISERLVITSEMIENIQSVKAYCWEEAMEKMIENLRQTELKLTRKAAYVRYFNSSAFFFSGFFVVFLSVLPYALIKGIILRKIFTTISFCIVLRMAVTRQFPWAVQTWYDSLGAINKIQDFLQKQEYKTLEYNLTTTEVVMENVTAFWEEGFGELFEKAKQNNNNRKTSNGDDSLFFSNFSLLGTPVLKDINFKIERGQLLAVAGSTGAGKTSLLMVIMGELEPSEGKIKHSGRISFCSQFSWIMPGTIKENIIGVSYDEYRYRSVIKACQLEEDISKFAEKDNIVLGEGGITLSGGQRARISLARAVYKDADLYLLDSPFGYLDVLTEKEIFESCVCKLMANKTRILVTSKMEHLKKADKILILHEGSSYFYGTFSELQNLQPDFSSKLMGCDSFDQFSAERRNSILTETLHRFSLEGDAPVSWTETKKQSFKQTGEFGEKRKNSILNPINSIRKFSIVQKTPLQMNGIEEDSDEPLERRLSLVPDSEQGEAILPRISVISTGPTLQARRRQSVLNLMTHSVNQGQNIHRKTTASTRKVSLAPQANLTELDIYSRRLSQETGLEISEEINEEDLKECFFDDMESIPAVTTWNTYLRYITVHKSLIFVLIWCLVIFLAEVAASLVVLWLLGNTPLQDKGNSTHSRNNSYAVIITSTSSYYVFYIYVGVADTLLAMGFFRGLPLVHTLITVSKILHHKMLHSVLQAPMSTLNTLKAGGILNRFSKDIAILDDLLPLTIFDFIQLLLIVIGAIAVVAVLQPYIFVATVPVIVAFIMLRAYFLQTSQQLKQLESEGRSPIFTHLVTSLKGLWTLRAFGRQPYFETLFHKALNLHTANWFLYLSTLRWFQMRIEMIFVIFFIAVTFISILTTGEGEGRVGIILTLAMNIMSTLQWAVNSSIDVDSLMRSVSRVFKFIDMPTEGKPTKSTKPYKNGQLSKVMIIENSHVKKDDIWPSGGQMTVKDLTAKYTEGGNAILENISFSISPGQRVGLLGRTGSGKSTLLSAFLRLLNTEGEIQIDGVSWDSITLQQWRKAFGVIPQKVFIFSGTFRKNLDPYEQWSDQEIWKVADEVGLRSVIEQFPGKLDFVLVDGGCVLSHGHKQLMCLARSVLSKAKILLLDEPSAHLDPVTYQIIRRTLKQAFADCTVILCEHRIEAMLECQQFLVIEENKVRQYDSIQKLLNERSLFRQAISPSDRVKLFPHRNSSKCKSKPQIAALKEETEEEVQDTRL

Turning to `COCC1CCN(c2cc(C(=O)O)nc3c2c(C2CCC2)nn3-c2ccnc(OC)c2)CC1` [compound 678, 3-cyclobutyl-4-[4-(methoxymethyl)piperidin-1-yl]-1-(2-methoxypyridin-4-yl)-1H-pyrazolo[3,4-b]pyridine-6-carboxylic acid], at ΔF508-CFTR [1], the “% Activation” value is 373.3% and the EC50 worked out at 0.0918 µM. Also, on ΔF508-CFTR [2] (setting [3]), the “% Activation” value is 181.5% and the EC50 was determined as 0.23 µM.
For `CC(C)c1nn(-c2ccc(F)cc2)c2nc(C(=O)O)cc(N3CCC[C@@H](O)C3)c12` [compound 783, 1-(4-fluorophenyl)-4-[(3R)-3-hydroxypiperidin-1-yl]-3-(propan-2-yl)-1H-pyrazolo[3,4-b]pyridine-6-carboxylic acid], in that order: 283.6%, 1.67 µM, 95.05% and 1.67 µM.
`Cc1nn(-c2ccccc2)c2nc(C(=O)O)cc(-c3ccc(N4CC5CCC(C4)O5)cc3)c12` [compound 134, 3-methyl-4-[4-(8-oxa-3-azabicyclo[3.2.1]octan-3-yl)phenyl]-1-phenyl-1H-pyrazolo[3,4-b]pyridine-6-carboxylic acid]: the “% Activation” value at ΔF508-CFTR [1] is recorded as 362.2%; on ΔF508-CFTR [2] (setting [4]), 153.25%. Further, the EC50 at ΔF508-CFTR [1] was determined as 0.556 µM; at ΔF508-CFTR [2] (setting [5]), 0.982 µM.
Taken in the same sequence, the figures for `COc1ccc(-c2cc(C(=O)O)nc3c2c(C)nn3C2CCCCC2)cc1` [compound 2, 1-cyclohexyl-4-(4-methoxyphenyl)-3-methyl-1H-pyrazolo[3,4-b]pyridine-6-carboxylic acid] were 198.6%, 49.03%, 2.97 µM and 2.65 µM.
Regarding `CN(C1CCOCC1)C1CCN(c2cc(C(=O)O)nc3c2c(C2CCC2)nn3-c2ccc(F)cc2)CC1` [compound 854, 3-cyclobutyl-1-(4-fluorophenyl)-4-{4-[methyl(oxan-4-yl)amino]piperidin-1-yl}-1H-pyrazolo[3,4-b]pyridine-6-carboxylic acid], the “% Activation” value is 380.7% at ΔF508-CFTR [1] and 131.1% at ΔF508-CFTR [2] (setting [3]). Besides, the EC50 on ΔF508-CFTR [1] worked out at 3.33 µM; on ΔF508-CFTR [2] (setting [3]), 2.08 µM.
Taken in the same sequence, the figures for `COCCOC1CCN(c2cc(C(=O)O)nc3c2c(C2CCC2)nn3-c2ccccc2)CC1` [compound 685, 3-cyclobutyl-4-[4-(2-methoxyethoxy)piperidin-1-yl]-1-phenyl-1H-pyrazolo[3,4-b]pyridine-6-carboxylic acid] were 510.3%, 260.5%, 0.245 µM and 0.164 µM.
As for `COC1CCN(c2cc(C(=O)O)nc3c2c(C)nn3-c2ccccc2)CC1` [compound 143, 4-(4-methoxypiperidin-1-yl)-3-methyl-1-phenyl-1H-pyrazolo[3,4-b]pyridine-6-carboxylic acid], the entries for the “% Activation” value on ΔF508-CFTR [1] and at ΔF508-CFTR [2] (setting [4]) were 246.8% and 109.45%, respectively. For the same compound, the EC50 turned out to be 2.42 µM on ΔF508-CFTR [1] and 2.29 µM on ΔF508-CFTR [2] (setting [5]).
Regarding `O=C(O)c1cc(N2CCC(N3CCOCC3)CC2)c2c(C3CCC3)nn(-c3ccnc(O)c3)c2n1` [compound 885, 3-cyclobutyl-1-(2-hydroxypyridin-4-yl)-4-[4-(morpholin-4-yl)piperidin-1-yl]-1H-pyrazolo[3,4-b]pyridine-6-carboxylic acid], on ΔF508-CFTR [1], the “% Activation” value is 255.5% and the EC50 was 2.45 µM. For the same compound, on ΔF508-CFTR [2] (setting [3]), the “% Activation” value is recorded as 66.2% and the EC50 came out at 3.34 µM.
In the case of `CC(C)c1nn(-c2ccc(F)cc2)c2nc(C(=O)O)cc(N3CCC(N(C)C(C)C)CC3)c12` [compound 799, 1-(4-fluorophenyl)-4-{4-[methyl(propan-2-yl)amino]piperidin-1-yl}-3-(propan-2-yl)-1H-pyrazolo[3,4-b]pyridine-6-carboxylic acid], the “% Activation” value worked out at 306.6% at ΔF508-CFTR [1] and 114% at ΔF508-CFTR [2] (setting [3]). For the same compound, the EC50 at ΔF508-CFTR [1] and on ΔF508-CFTR [2] (setting [3]) was 1.67 µM in each case.
For `COCCCN1CCN(c2cc(C(=O)O)nc3c2c(C)nn3-c2ccccc2)CC1` [compound 321, 4-[4-(3-methoxypropyl)piperazin-1-yl]-3-methyl-1-phenyl-1H-pyrazolo[3,4-b]pyridine-6-carboxylic acid], the “% Activation” value on ΔF508-CFTR [1] stood at 196.85%; at ΔF508-CFTR [2] (setting [4]) it was 39.85%. The EC50 on ΔF508-CFTR [1] and at ΔF508-CFTR [2] (setting [5]) was 2.51 µM throughout.
With `CC(C)Oc1nn(C2CCCCC2)c2nc(C(=O)O)cc(-c3ccc(C#N)cc3)c12` [compound 923, 4-(4-cyanophenyl)-1-cyclohexyl-3-[(propan-2-yl)oxy]-1H-pyrazolo[3,4-b]pyridine-6-carboxylic acid], on ΔF508-CFTR [1], the “% Activation” value amounted to 263% and the EC50 came out at 0.38 µM. Further, on ΔF508-CFTR [2] (setting [6]), the “% Activation” value turned out to be 60.466% and the EC50 amounted to 0.355 µM.
On to `COC1CN(C(=O)COc2cc(C(=O)O)nc3c2c(C2CCC2)nn3-c2ccccc2)C1` [compound 481, 3-cyclobutyl-4-[2-(3-methoxyazetidin-1-yl)-2-oxoethoxy]-1-phenyl-1H-pyrazolo[3,4-b]pyridine-6-carboxylic acid], for which the “% Activation” value amounted to 210.3% at ΔF508-CFTR [1] and 48.6% at ΔF508-CFTR [2] (setting [3]). The EC50 on ΔF508-CFTR [1] came to 3.05 µM; on ΔF508-CFTR [2] (setting [3]) it was 3.34 µM.
`N#CC1CCN(C2CCN(c3cc(C(=O)O)nc4c3c(C3CCC3)nn4-c3ccc(F)cc3)CC2)CC1` [compound 860, 4-(4-cyano[1,4′-bipiperidin]-1′-yl)-3-cyclobutyl-1-(4-fluorophenyl)-1H-pyrazolo[3,4-b]pyridine-6-carboxylic acid]: the “% Activation” value was 576.25% on ΔF508-CFTR [1] and 383% at ΔF508-CFTR [2] (setting [3]). The EC50 worked out at 0.417 µM on ΔF508-CFTR [1] and 0.517 µM at ΔF508-CFTR [2] (setting [3]).
For the compound `CC(C)c1nn(-c2cccc(N3CC(F)C3)c2)c2nc(C(=O)O)cc(-c3ccc(N4CCOCC4)cc3)c12` [compound 167, 1-[3-(3-fluoroazetidin-1-yl)phenyl]-4-[4-(morpholin-4-yl)phenyl]-3-(propan-2-yl)-1H-pyrazolo[3,4-b]pyridine-6-carboxylic acid], the “% Activation” value is given as 568.2% on ΔF508-CFTR [1] and 301.1% on ΔF508-CFTR [2] (setting [4]). In addition, the EC50 on ΔF508-CFTR [1] came to 0.535 µM; at ΔF508-CFTR [2] (setting [5]), 0.596 µM.
Turning to `O=C(O)c1cc(N2CCC3C(CCN3C3CCC3)C2)c2c(C3CCC3)nn(-c3ccc(F)cc3)c2n1` (centres unmarked) [compound 901, 3-cyclobutyl-4-(1-cyclobutyloctahydro-5H-pyrrolo[3,2-c]pyridin-5-yl)-1-(4-fluorophenyl)-1H-pyrazolo[3,4-b]pyridine-6-carboxylic acid], at ΔF508-CFTR [1], the “% Activation” value was 432.3% and the EC50 was 0.151 µM. At ΔF508-CFTR [2] (setting [3]), the “% Activation” value is on record as 199.2% and the EC50 was 0.0876 µM.
Consider `COCCN(C)c1cc(C(=O)O)nc2c1c(C1CCC1)nn2-c1ccccc1` [compound 422, 3-cyclobutyl-4-[(2-methoxyethyl)(methyl)amino]-1-phenyl-1H-pyrazolo[3,4-b]pyridine-6-carboxylic acid], for which, at ΔF508-CFTR [1], the “% Activation” value came out at 336.05% and the EC50 stood at 1 µM. Besides, on ΔF508-CFTR [2] (setting [3]), the “% Activation” value is given as 131.9% and the half-maximal effective concentration (EC50) amounted to 1.62 µM.
Take `COC(=O)N1CCN(c2ccc(-c3cc(C(=O)O)nc4c3c(C)nn4-c3ccccc3)cc2)CC1` [compound 70, 4-{4-[4-(methoxycarbonyl)piperazin-1-yl]phenyl}-3-methyl-1-phenyl-1H-pyrazolo[3,4-b]pyridine-6-carboxylic acid]: the entries for the “% Activation” value on ΔF508-CFTR [1] and on ΔF508-CFTR [2] (setting [4]) were 355.6% and 160.8%, respectively. Besides, the EC50 came out at 0.649 µM at ΔF508-CFTR [1] and 0.91 µM on ΔF508-CFTR [2] (setting [5]).
For `CC(C)c1nn(C2CCCCC2)c2nc(C(=O)O)cc(-c3ccnn3C)c12` [compound 370, 1-cyclohexyl-4-(1-methyl-1H-pyrazol-5-yl)-3-(propan-2-yl)-1H-pyrazolo[3,4-b]pyridine-6-carboxylic acid], in that order: 133%, 19.18%, more than 10 µM and more than 10 µM.
On to `O=C(O)c1cc(OCCC2CCCCC2)c2c(C3CCC3)nn(-c3ccccc3)c2n1` [compound 633, 3-cyclobutyl-4-(2-cyclohexylethoxy)-1-phenyl-1H-pyrazolo[3,4-b]pyridine-6-carboxylic acid], for which, on ΔF508-CFTR [1], the “% Activation” value was found to be 279.27% and the EC50 came to 0.714 µM. Further, on ΔF508-CFTR [2] (setting [3]), the “% Activation” value came to 66.87% and the EC50 is 0.665 µM.
For `Cc1nn(-c2ccccc2)c2nc(C(=O)O)cc(-c3ccc(N4C[C@@H]5C[C@H]4CO5)cc3)c12` [compound 127, 3-methyl-4-{4-[(1S,4S)-2-oxa-5-azabicyclo[2.2.1]heptan-5-yl]phenyl}-1-phenyl-1H-pyrazolo[3,4-b]pyridine-6-carboxylic acid], the figures for the “% Activation” value at ΔF508-CFTR [1] and on ΔF508-CFTR [2] (setting [4]) were 401.3% and 221.4%, respectively. Further, the results for the EC50 on ΔF508-CFTR [1] and on ΔF508-CFTR [2] (setting [5]) were 0.719 µM and 1.79 µM, respectively.
